We go through 12 compounds from patent US20260234165A1, “MACROCYCLIC COMPOUNDS, PREPARATION METHOD THEREFOR, AND USE THEREOF” (GENFLEET THERAPEUTICS (SHANGHAI) INC., priority 2004, published 2026).

What all share (assay type): cell-based, human
Assay [1] relates to p-ERK in AsPC-1 cells (KRAS G12D mutation). In words: Cell p-ERK assay (HTRF) in AsPC-1 cells. The note with it: AsPC-1 cells, 3 h compound incubation, HTRF p-ERK T202/Y204, read-out: AsPC-1 p-ERK IC50. The method in brief:
(§1)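 AsPC-1 (10000/well) or NCI-H441 (20000/well) cells were seeded in RPMI-1640 with 10% FBS, grown overnight, then exposed to 3.16-fold compound dilutions (0.1% DMSO) for 3 h at 37 °C. Lysates were read for phospho-ERK T202/Y204 by HTRF; IC50 came from four-parameter fits of inhibition versus DMSO and blank wells.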

For a further assay, the system named is NCI-H441 cells. In words: 3D cell proliferation assay (CellTiter Glo-3D), NCI-H441. The note with it: medium with 2% FBS, read-out: H441 AP IC50. The essentials: (§2)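 Luminescent CellTiter-Glo 3D readout after 5-day compound exposure (3.16-fold series, 0.1% DMSO, 2% FBS medium) at 37°C on 800 cells/well plated the day before; IC50 from four-parameter curve of inhibition relative to DMSO and blank wells.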

The subject of assay [2] is p-ERK in NCI-H441 cells (KRAS G12V mutation). Nature of the assay: Cell p-ERK assay (HTRF) in NCI-H441 cells. The note with it: NCI-H441 cells, 3 h compound incubation, HTRF p-ERK T202/Y204, read-out: H441 p-ERK IC50. The essentials: as §1
A general note: TR-FRET usually uses a lanthanide donor and a delayed reading to cut background.

In assay [3] the test system is AsPC-1 cells (KRAS G12D mutation). Nature of the assay: 3D cell proliferation assay (CellTiter Glo-3D), AsPC-1. The note with it: medium with 2% FBS, read-out: AsPC-1 AP IC50. The essentials: as §2
(In general: Cellular ATP, detected with luciferase, serves as a proxy for viable cell number.)

The mark [4] stands for this setting: Homo sapiens, NCI-H441, 3D cell proliferation (CellTiter Glo-3D).
Setting [5] is: Homo sapiens, ASPC1, 3D cell proliferation (CellTiter Glo-3D).
Setting [6] is: 3D cell proliferation (CellTiter Glo-3D).

Where a name gives a salt, the structure may show the parent alone. Read-outs that look alike come from different tables or passages of the source.

`CCn1c(-c2cc(C#CCN3CC(F)(F)C3)cnc2[C@H](C)OC)c2c3cc(ccc31)-c1csc(n1)C[C@H](NC(=O)[C@H]1[C@H](C)[C@@H]1C)C(=O)N1CCC[C@H](N1)C(=O)OCC(C)(C)C2` [Compound Z390-1, (2R,3S)—N-((6^3S,4S,Z)-1^2-(5-(3-(3,3-difluoroazetidin-1-yl)prop-1-yn-1-yl)-2-((S)-1-methoxyethyl)pyridin-3-yl)-1^1-ethyl-10,10-dimethyl-5,7-dioxo-6^1,6^2,6^3,6^4,6^5,6^6-hexahydro-1^1H-8-oxa-2(4,2)-thiazola-1(5,3)-indola-6(1,3)-pyridazinacycloundecaphane-4-yl)-2,3-dimethylcyclopropane-1-carboxamide]: the IC50 in assay [1] (Homo sapiens, ASPC1, 3 h) was 0.34 nM; in the assay with NCI-H441 cells (setting [4]), 0.48 nM; in assay [2] (Homo sapiens, NCI-H441, 3 h) it was 0.4 nM; in assay [3] (setting [5]), 0.54 nM.

As to `CCn1c(-c2cc(OCCN3CCOC4(CC4)C3)cnc2[C@H](C)OC)c2c3cc(ccc31)-c1csc(n1)C[C@H](NC(=O)[C@H]1[C@H](C)[C@@H]1C)C(=O)N1CCC[C@H](N1)C(=O)OCC(C)(C)C2` [Compound Z83, (1r,2R,3S)—N-((6^3R,4R,Z)-1^2-(5-(2-(4-oxa-7-azaspiro[2,5]octan-7-yl)ethoxy)-2-((S)-1-methoxyethyl)pyridin-3-yl)-1′-ethyl-10,10-dimethyl-5,7-dioxo-6^1,6^2,6^3,6^4,6^5,6^6-hexahydro-1^1H-8-oxa-2(4,2)-thiazola-1(5,3)-indola-6(1,3)-pyridazinacycloundecaphane-4-yl)-2,3-dimethylcyclopropane-1-carboxamide], the IC50 in assay [1] stood at 0.43 nM; with NCI-H441 cells (setting [6]), 0.48 nM; in assay [2], 0.75 nM; in assay [3] (setting [6]), 0.77 nM.

Turning to `CCn1c(-c2cc(C#CCN3CCS(=N)(=O)CC3)cnc2[C@H](C)OC)c2c3cc(ccc31)-c1csc(n1)C[C@H](NC(=O)[C@H]1[C@H](C)[C@@H]1C)C(=O)N1CCC[C@H](N1)C(=O)OCC(C)(C)C2` (atropisomer, axis not shown; (Ra)) [Compound Z850, (1r,2R,3S)—N-((6^3S,4S,Z)-1^1-ethyl-(Ra)-1^2-(5-(3-(1-imino-1-oxo-11^6-thiomorpholino)prop-1-yn-1-yl)-2-((S)-1-methoxyethyl)pyridin-3-yl)-10,10-dimethyl-5,7-dioxo-6^1,6^2,6^3,6^4,6^5,6^6-hexahydro-1^1-8-oxa-2(4,2)-thiazola-1(5,3)-indola-0(1,3)-pyridazinacycloundecaphane-4-yl)-2.3-dimethylcyclopropane-1-carboxamide], the IC50 is 0.18 nM in assay [1] (Homo sapiens, ASPC1, 3 h); 0.13 nM with NCI-H441 cells (setting [4]); 0.25 nM in assay [2] (Homo sapiens, NCI-H441, 3 h); 0.08 nM in assay [3] (setting [5]).

In the case of `CCn1c(-c2cc(N3CCN4CCOC[C@@H]4C3)cnc2[C@H](C)OC)c2c3cc(ccc31)-c1csc(n1)C[C@H](NC(=O)[C@H]1[C@H](C)[C@@H]1C)C(=O)N1CCC[C@H](N1)C(=O)OCC(C)(C)C2` (atropisomer, axis not shown; (Ra)) [Compound Z73, (1r,2R,3S)—N-((6^3S,4S,Z)-1^1-ethyl-(Ra)-1^2-(5-((S)-hexahydropyrazino[2,1-c][1,4]oxazin-8(1H)-yl)-2-((S)-1-(methoxy-d3)ethyl)pyridin-3-yl)-10,10-dimethyl-5,7-dioxo-6^1,6^2,6^3,6^4,6^5,6^6-hexahydro-1^1H-8-oxa-2(4,2)-thiazola-1(5,3)-indola-6(1,3)-pyridazinacycloundecaphane-4-yl)-2,3-dimethylcyclopropane-1-carboxamide], the IC50 was 0.21 nM in assay [1], 0.35 nM in the assay on NCI-H441 cells (setting [6]), 0.24 nM in assay [2] and 0.65 nM in assay [3] (setting [6]).

Regarding `CCn1c(-c2cc(OCCN3CCP(C)(=O)CC3)cnc2[C@H](C)OC)c2c3cc(ccc31)-c1csc(n1)C[C@H](NC(=O)[C@H]1[C@H](C)[C@@H]1C)C(=O)N1CCC[C@H](N1)C(=O)OCC(C)(C)C2` (single isomer, unassigned) [Compound Z780], the IC50 is 3.35 nM in assay [1] (Homo sapiens, ASPC1, 3 h); 1.58 nM with NCI-H441 cells (setting [4]); 1.56 nM in assay [2] (Homo sapiens, NCI-H441, 3 h); 4.51 nM in assay [3] (setting [5]).

Regarding `CCn1c(-c2cc([C@H]3CCN4CCOC[C@H]4C3)cnc2[C@H](C)OC)c2c3cc(ccc31)-c1csc(n1)C[C@H](NC(=O)[C@H]1[C@H](C)[C@@H]1C)C(=O)N1CCC[C@H](N1)C(=O)OCC1(CC1)C2` (single isomer, unassigned) [Compound Z78], the IC50 in assay [1] (Homo sapiens, ASPC1, 3 h) came to 18.7 nM; with NCI-H441 cells (setting [4]) it was 7.54 nM; in assay [2] (Homo sapiens, NCI-H441, 3 h), 9.86 nM; in assay [3] (setting [5]) it was 28.3 nM.

Regarding `CCn1c(-c2cc(C#C[C@@H]3CCCN3C)cnc2[C@H](C)OC)c2c3cc(ccc31)-c1csc(n1)C[C@H](NC(=O)[C@H]1[C@H](C)[C@@H]1C)C(=O)N1CCC[C@H](N1)C(=O)OCC(C)(C)C2` (single isomer, unassigned) [Compound Z598A], the IC50 came to 4.13 nM in assay [1], 4.73 nM in the assay on NCI-H441 cells (setting [6]), 1.7 nM in assay [2] and 6.52 nM in assay [3] (setting [6]).

With `CCn1c(-c2cc(C#CCN3CC(N=S(C)(C)=O)C3)cnc2[C@H](C)OC)c2c3cc(ccc31)-c1csc(n1)C[C@H](NC(=O)[C@H]1[C@H](C)[C@@H]1C)C(=O)N1CCC[C@H](N1)C(=O)OCC(C)(C)C2` [Compound Z1046, (2R,3S)—N-((6^3S,4S,Z)-1^2-(5-(3-(3-((dimethyl(oxo)-λ^6-sulfaneylidene)amino)azetidin-1-yl)prop-1-yn-1-yl)-2-((S)-1-methoxyethyl)pyridin-3-yl)-1^1-ethyl-10,10-dimethyl-5,7-dioxo-6^1,6^2,6^3,6^4,6^5,6^6-hexahydro-1^1H-8-oxa-2(4,2)-thiazola-1(5,3)-indola-6(1,3)-pyridazinacycloundecaphane-4-yl)-2,3-dimethylcyclopropane-1-carboxamide], the IC50 in assay [1] (Homo sapiens, ASPC1, 3 h) came out at 0.71 nM; in the assay with NCI-H441 cells (setting [4]), 0.34 nM; in assay [2] (Homo sapiens, NCI-H441, 3 h), 0.34 nM; in assay [3] (setting [5]), 0.63 nM.

Turning to `CCn1c(-c2cc(C#C[C@]3(C)CCCN3C)cnc2[C@H](C)OC)c2c3cc(ccc31)-c1csc(n1)C[C@H](NC(=O)[C@H]1[C@H](C)[C@@H]1C)C(=O)N1CCC[C@H](N1)C(=O)OCC(C)(C)C2` (atropisomer, axis not shown; (Ra)) [Compound Z642], the IC50 in assay [1] (Homo sapiens, ASPC1, 3 h) was found to be 0.4 nM; with NCI-H441 cells (setting [4]), 0.36 nM; in assay [2] (Homo sapiens, NCI-H441, 3 h) it was 0.29 nM; in assay [3] (setting [5]), 0.65 nM.

As to `CCn1c(-c2cc(OCC34CCCN3CCC4)cnc2[C@H](C)OC)c2c3cc(ccc31)-c1csc(n1)C[C@H](NC(=O)[C@H]1[C@H](C)[C@@H]1C)C(=O)N1CCC[C@H](N1)C(=O)OCC1(CC1)C2` (single isomer, unassigned) [Compound Z339], the IC50 turned out to be 10.8 nM in assay [1] (Homo sapiens, ASPC1, 3 h); 7.33 nM in the assay on NCI-H441 cells (setting [4]); 5.48 nM in assay [2] (Homo sapiens, NCI-H441, 3 h); 18.3 nM in assay [3] (setting [5]).

With `CCn1c(-c2cc(C#CCN3CCC3)cnc2[C@H](C)OC)c2c3cc(ccc31)-c1csc(n1)C[C@H](NC(=O)[C@H]1[C@H](C)[C@@H]1C)C(=O)N1CCC[C@H](N1)C(=O)OCC(C)(C)C2` [Compound Z361, (1r,2R,3S)—N-((6^3S,4S,Z)-1-(5-(3-(azetidin-1-yl)prop-1-yn-1-yl)-2-((S)-1-methoxyethyl)pyridin-3-yl)-1^1-ethyl-10,10-dimethyl-5,7-dioxo-6^1,6^2,6^3,6^4,6^5,6^6-hexahydro-1^1H-8-oxa-2(4,2)-thiazola-1(5,3)-indola-6(1,3)-pyridazinacycloundecaphane-4-yl)-2,3-dimethylcyclopropane-1-carboxamide formate], the IC50 in assay [1] came to 2.66 nM; in the assay on NCI-H441 cells (setting [6]), 2.25 nM; in assay [2], 2.61 nM; in assay [3] (setting [6]), 2.38 nM.

For `CCn1c(-c2cc(OCCN3CCOCC34CC4)cnc2[C@H](C)OC)c2c3cc(ccc31)-c1csc(n1)C[C@H](NC(=O)[C@H]1C[C@@H]1C(F)F)C(=O)N1CCC[C@H](N1)C(=O)OCC1(CC1)C2` (relative stereo) [Compound Z557, (1S,2S)—N-((3′S,4′S,Z)—(Ra)-2′-(5-(2-(7-oxa-4-azaspiro[2,5]octan-4-yl)ethoxy)-2-((S)-1-methoxyethyl)pyridin-3-yl)-1′-ethyl-5′,7′-dioxospiro[cyclopropane-1,10′-8-oxa-2(4,2)-thiazola-1(5,3)-indola-6(1,3)-pyridazinacycloundecaphan]-4′-yl)-2-trans-(difluoromethyl)cyclopropane-1-carboxamide], the IC50 in assay [1] amounted to 20.7 nM; with NCI-H441 cells (setting [6]), 7.66 nM; in assay [2], 5.56 nM; in assay [3] (setting [6]), 16.3 nM.

One may read the IC50 as the concentration at which inhibition is half-maximal.
